Data on five compounds can be found in ChEMBL document CHEMBL1129506, “2,4-Diarylpyrrolidine-3-carboxylic acids--potent ETA selective endothelin receptor antagonists. 1. Discovery of A-127722” (J Med Chem, 1996).

For assay [1], the target named is T1, Endothelin receptor type B (Sus scrofa, UniProt P35463).
T1 sequence (P35463 whole entry): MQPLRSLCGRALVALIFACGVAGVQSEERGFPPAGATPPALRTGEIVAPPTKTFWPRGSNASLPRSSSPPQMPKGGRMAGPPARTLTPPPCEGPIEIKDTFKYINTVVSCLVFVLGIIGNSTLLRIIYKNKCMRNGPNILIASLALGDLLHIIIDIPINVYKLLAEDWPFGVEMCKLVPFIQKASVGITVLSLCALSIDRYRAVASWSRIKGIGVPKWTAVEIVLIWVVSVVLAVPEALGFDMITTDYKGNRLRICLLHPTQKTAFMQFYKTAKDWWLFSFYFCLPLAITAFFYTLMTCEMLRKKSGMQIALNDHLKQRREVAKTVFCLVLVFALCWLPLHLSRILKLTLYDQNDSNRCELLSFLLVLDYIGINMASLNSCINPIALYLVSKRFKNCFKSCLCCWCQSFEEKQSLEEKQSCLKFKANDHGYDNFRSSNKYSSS
In words: Inhibitory activity was measured against Endothelin B receptor binding to porcine cerebellum; inactive. The format is tissue-based.

For assay [2], the target named is T2, Endothelin-1 receptor (Rattus norvegicus, UniProt P26684).
T2 sequence (P26684 whole entry): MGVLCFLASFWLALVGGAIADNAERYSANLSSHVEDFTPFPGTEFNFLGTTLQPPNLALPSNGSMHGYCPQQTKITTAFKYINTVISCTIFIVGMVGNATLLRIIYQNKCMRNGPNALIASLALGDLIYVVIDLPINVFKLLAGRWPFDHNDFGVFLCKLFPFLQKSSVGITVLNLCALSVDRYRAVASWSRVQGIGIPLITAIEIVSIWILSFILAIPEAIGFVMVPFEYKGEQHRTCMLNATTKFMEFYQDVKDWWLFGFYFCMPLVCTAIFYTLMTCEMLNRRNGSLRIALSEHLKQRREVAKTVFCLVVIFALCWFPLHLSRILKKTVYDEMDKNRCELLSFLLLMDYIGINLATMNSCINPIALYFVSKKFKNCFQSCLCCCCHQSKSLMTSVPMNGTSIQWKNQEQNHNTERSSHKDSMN
Put plainly: Inhibitory activity against the Endothelin A receptor of rat MMQ cells. The format is cell-based.

Assay [3] has as its target T1, Endothelin receptor type B. Put plainly: Inhibitory activity measured against Endothelin B receptor binding to porcine cerebellum. The format is tissue-based.
Assay [4] addresses T3, Endothelin receptor type B (Homo sapiens, UniProt P24530).
T3 sequence (P24530 whole entry): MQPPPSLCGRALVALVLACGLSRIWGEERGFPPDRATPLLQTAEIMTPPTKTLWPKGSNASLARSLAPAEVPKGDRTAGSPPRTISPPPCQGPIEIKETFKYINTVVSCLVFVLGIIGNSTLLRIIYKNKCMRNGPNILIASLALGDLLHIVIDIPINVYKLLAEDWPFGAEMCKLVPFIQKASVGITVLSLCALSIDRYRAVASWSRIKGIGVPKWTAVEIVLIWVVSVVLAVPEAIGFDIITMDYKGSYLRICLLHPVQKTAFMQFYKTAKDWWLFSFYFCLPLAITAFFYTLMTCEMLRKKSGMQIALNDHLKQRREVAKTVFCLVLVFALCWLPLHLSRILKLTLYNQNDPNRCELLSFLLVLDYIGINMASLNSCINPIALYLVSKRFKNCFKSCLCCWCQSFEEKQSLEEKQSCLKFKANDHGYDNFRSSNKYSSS
Put plainly: Radioligand binding selectivity to human Endothelin B receptor in chinese hamster ovary cells. It is filed as cell-based, CHO.

In assay [5] the target is T4, Endothelin-1 receptor (Homo sapiens, UniProt P25101).
T4 sequence (P25101 whole entry): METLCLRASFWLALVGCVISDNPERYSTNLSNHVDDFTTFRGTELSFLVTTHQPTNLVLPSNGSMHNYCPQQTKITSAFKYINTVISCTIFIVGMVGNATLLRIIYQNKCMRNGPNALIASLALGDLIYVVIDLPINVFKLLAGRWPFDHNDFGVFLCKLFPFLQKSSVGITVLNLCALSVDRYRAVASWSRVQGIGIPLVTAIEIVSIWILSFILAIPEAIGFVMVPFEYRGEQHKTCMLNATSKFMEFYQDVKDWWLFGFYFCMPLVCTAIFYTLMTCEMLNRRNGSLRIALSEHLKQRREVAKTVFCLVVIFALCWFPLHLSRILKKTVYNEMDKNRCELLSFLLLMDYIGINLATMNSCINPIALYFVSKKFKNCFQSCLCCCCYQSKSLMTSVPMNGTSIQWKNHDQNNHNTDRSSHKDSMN
In words: Radioligand binding selectivity to human Endothelin A receptor in chinese hamster ovary cells. It is filed as cell-based, CHO.

For the next assay, the target named is T5, Endothelin receptor (Rattus norvegicus, UniProt P26684+P21451).
T5 sequence (P26684 whole entry): T2 sequence (P26684 whole entry)
T5 sequence (P21451 whole entry): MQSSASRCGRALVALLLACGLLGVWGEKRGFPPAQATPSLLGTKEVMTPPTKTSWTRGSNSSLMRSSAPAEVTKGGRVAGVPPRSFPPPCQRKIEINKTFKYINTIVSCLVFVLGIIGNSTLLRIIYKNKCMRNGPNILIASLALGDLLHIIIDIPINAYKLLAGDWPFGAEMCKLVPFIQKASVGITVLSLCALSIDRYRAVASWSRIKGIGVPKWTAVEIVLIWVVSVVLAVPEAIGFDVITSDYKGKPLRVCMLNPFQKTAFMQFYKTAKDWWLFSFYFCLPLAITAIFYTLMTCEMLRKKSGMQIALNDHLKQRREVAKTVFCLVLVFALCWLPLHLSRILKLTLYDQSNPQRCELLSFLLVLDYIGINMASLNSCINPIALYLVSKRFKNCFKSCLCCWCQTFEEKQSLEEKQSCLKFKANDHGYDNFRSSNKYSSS
In words: Inhibition of phosphoinositol hydrolysis of MMQ cells. It is filed as functional, cell-based.

The target in assay [6] is T3, Endothelin receptor type B. In words: Inhibitory activity against human Endothelin B receptor in chinese hamster ovary cells. It is filed as cell-based, CHO.
Assay [7] concerns the target T4, Endothelin-1 receptor. Put plainly: Inhibitory activity against human Endothelin A receptor in chinese hamster ovary cells. It is filed as cell-based, CHO.

The structures appear in SMILES notation.

Consider `CCCCN(CCCC)C(=O)CN1CC(c2ccc3c(c2)OCO3)C(C(N)=O)C1c1ccc(OC)cc1` (stereo unspecified), for which the IC50 result in assay [1] is “Not Active”; on Endothelin-1 receptor [2], 58 nM.
In the case of `CCCCN(CCC)C(=O)CN1C[C@@H](c2ccc3c(c2)OCO3)[C@H](C(=O)O)[C@H]1c1ccc(OC)cc1`, the IC50 turned out to be 40 nM in assay [3]; 211 nM in assay [4]; 0.22 nM against Endothelin-1 receptor [2]; 0.81 nM on Endothelin-1 receptor [5]; 0.25 nM against Endothelin receptor.
For the compound `Cc1noc(NS(=O)(=O)c2cccc3c(N(C)C)cccc23)c1C` [BMS-182874], the Ki in assay [6] is greater than 50000 nM.
In the case of `CCCc1cc(C(=O)O)ccc1OC(C(=O)NS(=O)(=O)c1ccc(C(C)C)cc1)c1ccc2c(c1)OCO2` [L-754142], the Ki in assay [6] amounted to 5.4 nM; on Endothelin-1 receptor [7], 0.13 nM.
In assay [6], `COc1ccc(C2(O)OC(=O)C(c3ccc4c(c3)OCO4)=C2Cc2cc(OC)c(OC)c(OC)c2)cc1` (stereo unspecified) [PD-156707] came in with a Ki of 139 nM. This lies in the sub-micromolar range.
